Measured values from US20130116215A1, “COMBINATION THERAPIES FOR TREATING NEUROLOGICAL DISORDERS” (priority 2011, published 2013).
“Also recorded” adds a separate entry of the source. Read-outs that look alike come from different tables or passages of the source.

Assays:
[1] = target: T1, Acetylcholinesterase (AChE) (Electrophorus electricus, UniProt O42275); format: biochemical
T1 construct: purchased Invitrogen, Carlsbad, Calif
Method: (§1) Current therapy for AD is based on improving the brain synaptic availability of acetylcholine by using acetylcholinesterase inhibitors (AChEls). Therefore, potential drug effect on neuronal dysfunction was studied with an in vitro Acetylcholinesterase (AChE) assay using Amplex Red Acetylcholine/Assay Kit (Invitrogen, Carlsbad, Calif.). The efficacy of ridogrel on memory was obtained running dose-response (10-100 μM). 10 μM Eserine, an anticholinesterase drug, was used as positive control.
as §1, with “diminazene aceturate” for “ridogrel”, “(1-500” for “(10-100”

TAU phosphorylation = test: phospho-tau and Tau ELISA assay in tau-transfected HT4 cells; format: cell-based; conditions: tau-transfected mouse hippocampal-derived HT4 cell line
Method: Docetaxel is a clinically well established anti-mitotic chemotherapy medication used mainly for the treatment of breast, ovarian and non-small cell lung cancer which had shown close proximity with Tau motive. Neurofibrillary tangles, a hallmark of AD, are intracellular abnormally aggregates of hyperphosphorylated protein TAU [19]. In that sense, Tau pathology was evaluated on tau-transfected in a mouse hippocampal-derived HT4 cell line using a phospho-tau and Tau ELISA assay (Sigma-aldrich, St Louis, Mo.). The level of TAU phosphorylation is used as an indicator of the degree of TAU pathology.

[2] = system: cells stably expressing wild-type presenilin-1 an Aβ precursor protein; test: Aβ1-40 and Aβ1-42 ELISA on extracellular media of treated cells; format: cell-based
Excerpt: The putative neurological effects of this drug have been confirmed experimentally using sensitive Aβ1-40 and Aβ1-42 ELISA kits (Wako, Osaka, Japan) on the extracellular media of treated and untreated cells stably expressing wild-type presenilin-1 an Aβ precursor protein. […] Aggregation and fibril formation of Aβ peptides are central events in the pathogenesis of Alzheimer's disease. Previous studies have established the ratio of Aβ1-40 to Aβ1-42 as an important factor in determining the fibrillogenesis, and toxicity of amyloid plaques.

[3] = extracellular media, treated vs untreated cells

T1 sequence (O42275 24-633): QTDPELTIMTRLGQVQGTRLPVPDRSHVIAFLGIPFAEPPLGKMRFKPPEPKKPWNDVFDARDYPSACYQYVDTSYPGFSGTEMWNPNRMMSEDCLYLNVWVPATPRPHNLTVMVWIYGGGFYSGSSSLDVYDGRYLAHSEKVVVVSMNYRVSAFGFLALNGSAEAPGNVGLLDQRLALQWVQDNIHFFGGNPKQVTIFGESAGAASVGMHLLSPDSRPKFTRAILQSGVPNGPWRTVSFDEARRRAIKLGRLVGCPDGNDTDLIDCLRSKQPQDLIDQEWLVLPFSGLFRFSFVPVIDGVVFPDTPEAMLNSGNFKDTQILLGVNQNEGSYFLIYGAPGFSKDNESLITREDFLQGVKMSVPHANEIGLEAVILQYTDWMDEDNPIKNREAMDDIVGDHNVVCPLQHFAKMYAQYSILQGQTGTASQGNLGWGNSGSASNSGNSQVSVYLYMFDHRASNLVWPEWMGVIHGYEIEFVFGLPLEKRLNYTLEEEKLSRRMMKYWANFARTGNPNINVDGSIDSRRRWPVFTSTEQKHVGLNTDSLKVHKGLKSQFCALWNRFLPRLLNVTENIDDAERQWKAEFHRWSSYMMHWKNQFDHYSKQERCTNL

N=C(N)c1ccc(/N=N/Nc2ccc(C(=N)N)cc2)cc1 [Diminazene Aceturate, Diminazene aceturate]
inhibition of AChE ([1]; dose-response 1-500 μM, inhibition with dose 500 to 10 μM): dose-dependent inhibition

CC(=O)O[C@@]12CO[C@@H]1C[C@H](O)[C@@]1(C)C(=O)[C@H](O)C3=C(C)[C@@H](OC(=O)[C@H](O)[C@@H](NC(=O)OC(C)(C)C)c4ccccc4)C[C@@](O)([C@@H](OC(=O)c4ccccc4)[C@H]21)C3(C)C [Docetaxel]
TAU phosphorylation (pTAU/TAU ratio) (TAU phosphorylation): significantly reduces
TAU phosphorylation (pTAU/TAU ratio) (TAU phosphorylation; listed as docetaxel): reduces TAU phosphorylation

Cc1c(OCC(F)(F)F)ccnc1C[S+]([O-])c1nc2ccccc2[nH]1 (stereo not shown) [Lansoprazole]
Aβ1-40 peptide production [2, 3]: significantly increases
Aβ1-42 peptide production [2, 3]: significantly increase
Aβ1-40/Aβ1-42 ratio ([2]; treated cells): significant reduction; also recorded: reduces

O=C(O)CCCCO/N=C(/c1cccnc1)c1cccc(C(F)(F)F)c1 [Ridogrel]
inhibition of AChE ([1]; dose-response 10-100 μM, inhibition with dose 100 to 25 μM): dose-dependent inhibition
